In patent US20110207732A1, “AZAINDOLE DERIVATIVES” (MERCK PATENT GESELLSCHAFT MIT BESCHRANKTER HAFTUNG, priority 2008, published 2011):

Key:
Met kinase [1] = target: T1, Met kinase (Homo sapiens, UniProt P08581); assay: Met kinase inhibition (cell); type: cell-based
Met kinase [2] = target: T1, Met kinase; assay: Met kinase inhibition, flashplate method (enzyme); type: biochemical; parameters: 6His (N); purchased Upstate 14-526; host or cells: Sf21 insect cells (S. frugiperda), baculovirus
Protocol: The test plates used are 96-well Flashplate® microtitre plates from Perkin Elmer (Cat. No SMP200). The components of the kinase reaction described below are pipetted into the assay plate. The Met kinase and the substrate poly Ala-Glu-Lys-Tyr, (pAGLT, 6:2:5:1), are incubated for 3 hrs at room temperature with radioactively labelled ^33P-ATP in the presence and absence of test substances in a total volume of […]. The reaction is terminated using 150 μl of a 60 mM EDTA solution. After incubation for a further 30 min at room temperature, the supernatants are filtered off with suction, and the wells are washed three times with 200 μl of 0.9% NaCl solution each time. The measurement of the bound radioactivity is carried out by means of a scintillation measuring instrument (Topcount NXT, Perkin-Elmer).
The full value used is the inhibitor-free kinase reaction. This should be approximately in the range 6000-9000 cpm. The pharmacological zero value used is staurosporin in a final concentration of 0.1 mM. The inhibitory values (IC50) are determined using the RS1_MTS program.
30 μl of assay buffer 10 μl of substance to be tested in assay buffer with 10% of DMSO 10 μl of ATP (final concentration 1 μM cold, 0.35 μCi of ^33P-ATP) 50 μl of Met kinase/substrate mixture in assay buffer; • (10 ng of enzyme/well, 50 ng of pAGLT/well)

T1 sequence (P08581 25-1390): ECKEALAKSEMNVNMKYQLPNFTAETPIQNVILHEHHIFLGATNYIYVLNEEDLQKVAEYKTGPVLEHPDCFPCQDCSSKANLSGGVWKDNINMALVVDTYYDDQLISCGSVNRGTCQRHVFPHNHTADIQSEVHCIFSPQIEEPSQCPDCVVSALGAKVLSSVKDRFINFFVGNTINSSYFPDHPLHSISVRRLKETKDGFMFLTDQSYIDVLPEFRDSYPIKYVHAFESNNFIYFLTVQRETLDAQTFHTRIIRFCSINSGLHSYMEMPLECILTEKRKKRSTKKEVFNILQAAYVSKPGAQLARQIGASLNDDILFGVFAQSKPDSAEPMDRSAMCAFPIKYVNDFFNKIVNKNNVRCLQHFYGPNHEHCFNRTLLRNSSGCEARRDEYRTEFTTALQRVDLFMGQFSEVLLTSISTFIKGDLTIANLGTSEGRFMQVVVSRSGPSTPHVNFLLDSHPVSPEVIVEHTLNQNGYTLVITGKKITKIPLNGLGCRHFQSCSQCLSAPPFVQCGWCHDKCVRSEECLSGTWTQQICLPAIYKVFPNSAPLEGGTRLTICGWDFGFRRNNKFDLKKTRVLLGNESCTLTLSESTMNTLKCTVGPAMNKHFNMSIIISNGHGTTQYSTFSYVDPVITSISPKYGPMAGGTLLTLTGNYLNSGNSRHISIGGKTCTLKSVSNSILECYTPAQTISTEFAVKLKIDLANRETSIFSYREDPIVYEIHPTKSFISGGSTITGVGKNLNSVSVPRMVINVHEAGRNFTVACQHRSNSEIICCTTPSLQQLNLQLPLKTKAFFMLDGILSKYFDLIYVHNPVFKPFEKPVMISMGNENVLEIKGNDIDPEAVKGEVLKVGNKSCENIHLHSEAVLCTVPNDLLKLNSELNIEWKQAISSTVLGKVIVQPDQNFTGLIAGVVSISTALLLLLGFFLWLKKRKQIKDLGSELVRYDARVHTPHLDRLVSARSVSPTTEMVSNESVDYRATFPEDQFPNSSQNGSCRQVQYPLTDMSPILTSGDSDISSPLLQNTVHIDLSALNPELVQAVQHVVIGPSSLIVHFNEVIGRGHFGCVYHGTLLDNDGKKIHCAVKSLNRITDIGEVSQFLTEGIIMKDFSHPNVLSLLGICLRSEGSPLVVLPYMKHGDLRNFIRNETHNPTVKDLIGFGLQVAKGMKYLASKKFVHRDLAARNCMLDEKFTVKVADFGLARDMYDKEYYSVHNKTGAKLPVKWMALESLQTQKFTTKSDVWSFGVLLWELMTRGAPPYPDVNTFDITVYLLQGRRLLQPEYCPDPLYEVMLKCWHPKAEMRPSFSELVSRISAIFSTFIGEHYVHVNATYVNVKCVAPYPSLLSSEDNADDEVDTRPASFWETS

Compound | melting point [°C] | IC50 (Met kinase [1]) [µM] | IC50 (Met kinase [2]) [µM]
N#Cc1ccc2[nH]c(-c3ccncc3)c(-c3ccc(F)cc3)c2n1 | 230 | – | –
N#Cc1ccc2[nH]c(-c3cncnc3)c(-c3ccc(F)cc3)c2n1 [Compound A14, 3-(4-fluorophenyl)-2-(pyrimidin-5-yl)-1H-pyrrolo[3,2-b]pyridine-5-carbonitrile] | 230 to 232 | – | –
O=C(NCCN1CCOCC1)c1ccc2[nH]c(-c3ccncc3)c(-c3cccc(Cl)c3)c2n1 [Compound A61] | – | > 10 | > 10
NC(=O)c1ccc2[nH]c(-c3ccncc3)c(-c3cccc(Cl)c3)c2n1 [Compound A60] | – | > 10 | 0.1 to 10
N#Cc1ccc2[nH]c(-c3cncnc3)c(-c3cccc(Cl)c3)c2n1 [Compound A62, 3-(3-Chlorophenyl)-2-pyrimidin-5-yl-1H-pyrrolo[3,2-b]pyridine-5-carbonitrile] | – | – | > 10
N#Cc1ccc2[nH]c(-c3ccc(F)cc3)c(-c3ccncc3)c2n1 [Compound A20] | – | – | > 10
O=C(O)c1ccc2[nH]c(-c3ccncc3)c(-c3cccc(Cl)c3)c2n1 [Compound A59] | – | > 10 | 0.1 to 10
N#Cc1ccc2[nH]c(-c3ccncc3)c(-c3cccc(F)c3)c2n1 [Compound A58] | – | > 10 | 0.1 to 10
